According to BindingDB's records for doi:10.1016/j.bioorg.2017.01.003 (Comsats Institute of Information Technology, 2017):
pIC50: −log10 of the molar value.

What was measured:
5'-nucleotidase [1] = molecular target: 5'-nucleotidase (Homo sapiens, UniProt P21589); assay: Ecto-5'-Nucleotidase Inhibition Assay; settings: pH 7.4; 37 °C
Experimental: (§1) Then the mixture was placed in water bath at 99 °C for 20 min to stop the enzymatic reaction by thermal denaturation of protein. The aliquots of 50 μL of this reaction mixture were transferred into CE mini vials and injected hydrodynamically into the capillary under pressure of 0.5 psi for 5 s, followed by the application of 15 kV voltage for separation of substrate and product peaks.

5'-nucleotidase [2] = molecular target: T1, 5'-nucleotidase (Rattus norvegicus, UniProt P21588); assay: Ecto-5'-Nucleotidase Inhibition Assay; settings: pH 7.4; 37 °C
T1 sequence (P21588 whole entry): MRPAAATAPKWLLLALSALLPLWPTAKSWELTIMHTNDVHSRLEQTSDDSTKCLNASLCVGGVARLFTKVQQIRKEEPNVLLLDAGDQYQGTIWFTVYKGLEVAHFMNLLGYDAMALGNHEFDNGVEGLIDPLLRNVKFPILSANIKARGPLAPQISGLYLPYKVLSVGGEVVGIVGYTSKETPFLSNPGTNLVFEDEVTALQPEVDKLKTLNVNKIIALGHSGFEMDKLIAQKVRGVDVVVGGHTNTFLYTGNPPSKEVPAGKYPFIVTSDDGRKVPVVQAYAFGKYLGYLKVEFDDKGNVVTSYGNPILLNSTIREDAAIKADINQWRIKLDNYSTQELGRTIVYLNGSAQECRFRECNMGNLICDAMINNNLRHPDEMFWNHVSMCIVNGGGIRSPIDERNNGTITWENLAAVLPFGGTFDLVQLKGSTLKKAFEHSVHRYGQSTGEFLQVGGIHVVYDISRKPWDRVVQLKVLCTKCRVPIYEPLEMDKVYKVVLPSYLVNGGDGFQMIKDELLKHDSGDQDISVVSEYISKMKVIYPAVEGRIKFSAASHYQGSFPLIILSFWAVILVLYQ
Experimental: as §1

[3] = molecular target: Intestinal-type alkaline phosphatase (Bos taurus, UniProt P19111); assay: Alkaline Phosphatase Assay; settings: pH 9.8; 37 °C
Experimental: Alkaline phosphatase assay was optimized and performed in the same way as previously reported method with slight modifications [Sergienko et al., Nat. Protoc., 5:1431-1439]. All compounds were analyzed at a final concentration of 200 μM (1% DMSO) by using assay buffer with composition of […] diethanolamine (DEA) (pH 9.8), 0.05 mM ZnCl2 and 2.5 mM MgCl2. The total reaction volume was kept 50 μL containing 10 μL of tested compound, 20 μL of b-TNAP (1:800 (0.8 units/mL) diluted enzyme in assay buffer) or c-IAP (1:800 (1 units/mL) diluted enzyme in assay buffer). After incubation for 3-5 min at 37 °C., the luminescence was measured as a pre-read using microplate reader (BioTek FLx800, Instruments, Inc. USA). Then, 20 μL of substrate (CDPstar®) (final concentration of 110 μM) was added to the reaction mixture to initiate the enzymatic reaction. The change in the luminescence was recorded after 15 min. at 37 °C. The activity of each compound was measured in comparison with control (without any inhibitor). Levamisole (2 mM per well) and L-phenylalanine (4 mM per well) were used as standards (positive control) against b-TNAP) and c-IAP), respectively.

[4] = Alkaline Phosphatase Assay; settings: pH 9.8; 37 °C

Chain of 5'-nucleotidase (Homo sapiens, UniProt P21589) (P21589 whole entry): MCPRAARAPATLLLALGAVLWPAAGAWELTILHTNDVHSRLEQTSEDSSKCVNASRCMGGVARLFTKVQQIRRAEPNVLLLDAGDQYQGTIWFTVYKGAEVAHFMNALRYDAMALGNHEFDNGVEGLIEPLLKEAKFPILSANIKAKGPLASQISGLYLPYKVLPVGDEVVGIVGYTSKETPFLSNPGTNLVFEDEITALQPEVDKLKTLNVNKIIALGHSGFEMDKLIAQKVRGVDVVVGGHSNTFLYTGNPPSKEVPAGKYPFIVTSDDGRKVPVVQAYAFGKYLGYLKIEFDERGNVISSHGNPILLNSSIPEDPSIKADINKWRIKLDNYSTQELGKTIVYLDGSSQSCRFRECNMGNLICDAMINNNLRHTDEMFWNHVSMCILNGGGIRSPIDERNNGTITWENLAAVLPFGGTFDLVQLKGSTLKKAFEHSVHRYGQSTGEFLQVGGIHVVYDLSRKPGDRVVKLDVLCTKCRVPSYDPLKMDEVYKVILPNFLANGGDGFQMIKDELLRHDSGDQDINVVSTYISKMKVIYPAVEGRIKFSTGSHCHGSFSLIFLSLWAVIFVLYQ
Chain of Intestinal-type alkaline phosphatase (P19111 whole entry): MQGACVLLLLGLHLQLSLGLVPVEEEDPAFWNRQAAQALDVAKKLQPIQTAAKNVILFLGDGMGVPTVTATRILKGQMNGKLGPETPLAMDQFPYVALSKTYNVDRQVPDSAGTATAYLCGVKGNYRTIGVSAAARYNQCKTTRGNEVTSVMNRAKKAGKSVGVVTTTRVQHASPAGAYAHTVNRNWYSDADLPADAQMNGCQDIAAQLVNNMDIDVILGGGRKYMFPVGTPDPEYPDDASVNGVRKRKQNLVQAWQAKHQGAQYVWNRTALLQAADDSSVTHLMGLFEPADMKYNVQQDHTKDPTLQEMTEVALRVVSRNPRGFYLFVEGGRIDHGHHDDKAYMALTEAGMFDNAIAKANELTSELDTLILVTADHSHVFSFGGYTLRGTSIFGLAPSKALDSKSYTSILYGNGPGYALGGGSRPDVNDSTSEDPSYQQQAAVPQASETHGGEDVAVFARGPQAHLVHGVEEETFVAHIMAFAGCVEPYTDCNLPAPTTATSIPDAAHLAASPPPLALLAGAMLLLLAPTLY

| Structure (SMILES) | pIC50 (5'-nucleotidase [1]) | pIC50 (5'-nucleotidase [2]) | pIC50 [3] | pIC50 [4] |
| --- | --- | --- | --- | --- |
| NS(=O)(=O)c1ccc(N/N=C(/C(=O)/C=C/c2ccccc2Br)N2CCOCC2)cc1 [(Z)-4-(2-((E)-4-(2-bromophenyl)-1-morpholino-2-oxobut-3-enylidene)hydrazinyl) benzenesulfonamide (4i)] | 5.53 | 4.65 | 5.92 |  |
| NS(=O)(=O)c1ccc(N/N=C(/C(=O)/C=C/c2cccc([N+](=O)[O-])c2)N2CCOCC2)cc1 [(Z)-4-(2-((E)-1-morpholino-4-(3-Nitrophenyl)-2-oxobut-3-enylidene)hydrazinyl) benzenesulfonamide (4j)] |  |  | 6.13 |  |
| COc1ccc(/C=C/C(=O)/C(=N/Nc2ccc(S(N)(=O)=O)cc2)N2CCOCC2)cc1OC [(Z)-4-(2-((E)-4-(3,4-dimethoxyphenyl)-1-morpholino-2-oxobut-3-enylidene) hydrazinyl) benzenesulfonamide (4e)] |  | 5.13 | 6.46 |  |
| NS(=O)(=O)c1ccc(N/N=C(/C(=O)/C=C/c2ccccc2Cl)N2CCOCC2)cc1 [(Z)-4-(2-((E)-4-(2-chlorophenyl)-1-morpholino-2-oxobut-3-enylidene)hydrazinyl) benzenesulfonamide (4a)] | 4.94 | 5.19 | 6.92 |  |
| COc1ccc(/C=C/C(=O)/C(=N/Nc2ccc(S(N)(=O)=O)cc2)N2CCOCC2)cc1 [(Z)-4-(2-((E)-4-(4-methoxyphenyl)-1-morpholino-2-oxobut-3-enylidene)hydrazinyl) benzenesulfonamide (4d)] |  |  | 5.77 | 6.48 |
| COc1cccc(/C=C/C(=O)/C(=N/Nc2ccc(S(N)(=O)=O)cc2)N2CCOCC2)c1 [(Z)-4-(2-((E)-4-(3-methoxyphenyl)-1-morpholino-2-oxobut-3-enylidene)hydrazinyl) benzenesulfonamide (4c)] |  |  | 6.00 |  |
| COc1cc(/C=C/C(=O)/C(=N/Nc2ccc(S(N)(=O)=O)cc2)N2CCOCC2)cc(OC)c1OC [(Z)-4-(2-((E)-1-morpholino-2-oxo-4-(3,4,5-Trimethoxyphenyl)but-3-enylidene) hydrazinyl)benzenesulfonamide (4f)] | 5.76 | 6.17 | 5.59 |  |
| NS(=O)(=O)c1ccc(N/N=C(/C(=O)/C=C/c2ccc(Cl)cc2Cl)N2CCOCC2)cc1 [(Z)-4-(2-((E)-4-(2,4-dichlorophenyl)-1-morpholino-2-oxobut-3-enylidene)hydrazinyl) benzenesulfonamide (4b)] | 5.48 | 5.55 | 6.17 |  |
| NS(=O)(=O)c1ccc(N/N=C(/C(=O)/C=C/c2cccc(F)c2)N2CCOCC2)cc1 [(Z)-4-(2-((E)-4-(3-fluorophenyl)-1-morpholino-2-oxobut-3-enylidene)hydrazinyl) benzenesulfonamide (4h)] |  |  | 6.14 |  |
| NS(=O)(=O)c1ccc(N/N=C(/C(=O)/C=C/c2ccccc2F)N2CCOCC2)cc1 [(Z)-4-(2-((E)-4-(2-fluorophenyl)-1-morpholino-2-oxobut-3-enylidene)hydrazinyl) benzene-sulfonamide (4g)] |  |  | 6.36 |  |
